Assay results published in US11986474B1, “Methods for treating heart failure by administering cardiac sarcomere activators” (Cytokinetics, Incorporated, priority 2023, dated 2024).

Columns and labels:
[1] = system: patients with heart failure with reduced ejection fraction; assay: GALACTIC-HF phase 3 clinical trial, outcomes by titrated dose group; type: in vivo, human; details: for Hazard Ratio, CV Death / Hazard Ratio, Primary Endpoint: OM vs PBO
Protocol: In a phase 3 clinical trial, Global Approach to Lowering Adverse Cardiac Outcomes through Improving Contractility in Heart Failure (GALACTIC-HF), the following dosing regimen was used to assess treatment effect with omecamtiv mecarbil in patients with heart failure with reduced ejection fraction. At the initiation of treatment, a first dose level of 25 mg twice daily was orally administered to subjects randomized to receive omecamtiv mecarbil. At study visit week 2, a predose blood sample was collected. At week 4, subjects with week 2 omecamtiv mecarbil predose plasma concentration of less than 200 ng/mL would increase their dose level to 50 mg twice daily; subjects with week 2 plasma concentrations greater than or about 200 ng/mL but less than 300 ng/mL would increase their dose level to 37.5 mg twice daily; subjects with week 2 plasma concentrations greater than or about 300 ng/mL but less than 1000 ng/mL would maintain a dose level of 25 mg twice daily; and subjects with plasma concentration greater than or about 1000 ng/mL would start administration of placebo twice daily. At weeks 6, a predose blood sample was collected to confirm plasma concentration achieved and assess if changes to the dose should be made. […] The dosing regimen used in the GALACTIC-HF study was associated with reduced risk of heart failure outcomes and a very low incidence of excessive concentrations of omecamtiv mecarbil (e.g., plasma concentration over 1000 ng/mL). Treatment results were described in, for example, Cardiac Myosin Activation with Omecamtiv Mecarbil in Systolic Heart Failure (Teerlink et al., N. Engl. J. Med., 2021, 384; 2) and NCT02929329.
(§1) In a phase 3 clinical trial, Global Approach to Lowering Adverse Cardiac Outcomes through Improving Contractility in Heart Failure (GALACTIC-HF), all eligible participants were randomized 1:1 to oral administration of either placebo or omecamtiv mecarbil (pharmacokinetic-guided dosing: 25, 37.5 or 50 mg) twice daily. Pre-dose plasma concentrations of omecamtiv mecarbil were measured at weeks 2 and 6 with respective dose adjustments on weeks 4 and 8. The patient and investigator were blinded to the plasma concentrations and dispensed dose.
(§2) Participants randomized to omecamtiv mecarbil were started at the lowest dose of 25 mg twice daily. […] At the end of Week 8, 28.6% of participants were on 25 mg BID (including participants whose plasma concentration results were not available in time for any dose titration visit or participant compliance with dosing was not affirmatively documented by the investigator), which was higher than the anticipated proportion (4.1%) based on population PK modeling. In participants who completed the dosing algorithm as intended and were titrated to 37.5 or 50 mg BID, mean omecamtiv mecarbil plasma concentrations were higher than those in the 25 mg BID dose group. Participants titrated to doses of 37.5 or 50 mg BID tended to have reduced risk of the primary composite endpoint and cardiovascular death compared to those at a dose of 25 mg BID, as shown in Table 2 below.

[2] = GALACTIC-HF plasma concentration of omecamtiv mecarbil (PK-guided dosing); type: in vivo; details: Week 8 visit (Week 6 concentration)
Protocol: as §1, §2
A summary of participants by dose group at Week 4 (dose selection determined by the Week 2 concentrations of omecamtiv mecarbil), at Week 8 (dose selection determined by the Week 6 concentrations of omecamtiv mecarbil), and the final dose at Week 12, is provided in Table 3. Overall, the proportions of participants receiving each of the omecamtiv mecarbil doses remained generally consistent over time. At the Week 8 visit, 3.0% of participants had their doses adjusted from 50 to 25 mg BID and 1.1% from 37.5 to 25 mg BID. […]

[3] = system: patients with heart failure with reduced ejection fraction; details: randomized, placebo-controlled phase 3 clinical trial; cited from earlier work
[4] = system: patients with chronic heart failure with reduced ejection fraction; details: cited from earlier work
[5] = system: cardiomyocyte calcium transient; details: cited from earlier work
[6] = 25 mg BID dose group, Cox Model Adjusting for Significant Baseline Covariates
[7] = 25 mg BID dose group, Planned Primary Analysis Cox Model
[8] = 37.5 mg BID dose group, Cox Model Adjusting for Significant Baseline Covariates
[9] = 37.5 mg BID dose group, Planned Primary Analysis Cox Model
[10] = 50 mg BID dose group, Cox Model Adjusting for Significant Baseline Covariates
[11] = 50 mg BID dose group, Planned Primary Analysis Cox Model
[12] = patients with chronic HFrEF, treatment for 20 weeks

## COC(=O)N1CCN(Cc2cccc(NC(=O)Nc3ccc(C)nc3)c2F)CC1 [omecamtiv mecarbil, methyl 4-(2-fluoro-3-(3-(6-methylpyridin-3-yl)ureido)benzyl)piperazine-1-carboxylate]
[1]; [6]
  Hazard Ratio, CV Death: 1.11
  Hazard Ratio, Primary Endpoint: 0.93
[1]; [7]
  Hazard Ratio, CV Death: 1.18
  Hazard Ratio, Primary Endpoint: 1.00
[1]; 37.5 mg BID dose group, OM arm
  Primary Endpoint, participants n/N: OM (225/602) vs PBO (1,477/3,897)
[1]; [8]
  Hazard Ratio, CV Death: 0.94
  Hazard Ratio, Primary Endpoint: 0.90
[1]; [9]
  Hazard Ratio, CV Death: 1.00
  Hazard Ratio, Primary Endpoint: 0.93
[1]; [10]
  Hazard Ratio, CV Death: 0.98
  Hazard Ratio, Primary Endpoint: 0.89
[1]; [11]
  Hazard Ratio, CV Death: 0.91
  Hazard Ratio, Primary Endpoint: 0.87
[2]
  participants with down titration due to plasma concentration exceeding 750 ng/mL, number (%): 9 (0.22%)
  participants with down titration, plasma concentration in the 750 to <1,000 ng/mL range: 8 participants
[2]; human, plasma, oral, read-out: plasma concentration of the 1 down-titrated participant above 1,000 ng/mL
  concentration at 6 weeks: 1000 ng/mL
[3]
  relative risk of a heart-failure event or death from cardiovascular causes vs placebo: lower relative risk
  risk of myocardial ischemic events, ventricular arrhythmias, or death from cardiovascular causes or any cause: without evidence of an increase
[4]; early clinical studies, short-term intravenous administration
  cardiac performance: improved
[4]; likely due to shortening of diastole and decreased coronary perfusion
  plasma concentration above which the risk of cardiac ischemic events is increased: exceeding 1200 ng/mL
[4]; [12]
  left ventricular systolic and diastolic volumes: decreased
  left ventricular systolic function: increased
  natriuretic peptide concentrations and heart rate: reduced
[5]
  effect on intracellular calcium transients: no effect
